Experimental data from patent publication US9480772B2, “Gel sheet containing lipid peptide gelator and polymeric compound” (NISSAN CHEMICAL INDUSTRIES, LTD., priority 2010, dated 2016).
Residues, ends and D or L forms follow the SMILES beside them. *: point of attachment. Palmitoyl = CCCCCCCCCCCCCCCC(=O)*

Assay: Gel state after standing overnight and affinity with water (Example 1)
Format: physicochemical
Set-up: key to Affinity with water by addition of milliQ water: a sample ascertained to have the affinity with water is evaluated as ∘; a sample ascertained to have no affinity with water is evaluated as x
Procedure: N-Palmitoyl-Gly-His synthesized above was dissolved in a 50 mM phosphate buffer solution (pH 7.5) so as to give a concentration of 1% (w/w) in a closed system at 100° C. To the solution, gum arable (Wako Pure Chemical Industries, Ltd.) was added dropwise so as to give a concentration of 10% (w/w) so as to form gel. From the formed gel, 200 μl of the gel was taken and dropped onto a glass petri dish. The gel was left overnight and then observed. To the gel after standing overnight, milliQ water was dropped, and the affinity with water was observed. Also, PVA (manufactured by Wako Pure Chemical Industries, Ltd., n=1,500 to 1,800) at a concentration of 10% (w/w) was added dropwise, in place of the gum arabic, so as to form gel. Then, the gel was subjected to the same procedure, and the gel after standing overnight was observed.
For comparison, gum arable alone or PVA alone was used without using N-palmitoyl-Gly-His and was dropped onto a glass petri dish in a similar manner. Then, each sample was left overnight and then observed in a similar manner.
From the observation results, a sample ascertained to have the affinity with water is evaluated as ∘, and a sample ascertained to have no affinity with water is evaluated as x.

- Change in gel state after standing overnight (200 μl dropped onto a glass petri dish, left overnight): White gel
- Affinity with water by addition of milliQ water (gel after standing overnight, milliQ water dropped): ∘
Compound: CCCCCCCCCCCCCCCC(=O)NCC(=O)N[C@@H](Cc1c[nH]cn1)C(=O)O [N-palmitoyl-Gly-His] (Palmitoyl-Gly-His-OH)
